According to the NIST ThermoML archive (doi:10.1021/je050183a):

Tests used:
[1] = refractive index (Na D-line) (dimensionless); details: 298.15 K; 101.33 kPa; Liquid; Standard Abbe refractometry
[2] = 101 kPa, Liquid; for viscosity: Capillary tube (Ostwald / Ubbelohde) method; for speed of sound: Linear variable-path acoustic interferometer; for mass density: Pycnometric method
[3] = refractive index (Na D-line) (dimensionless); xn = mol fraction of the nth substance listed; details: 298.15 K, 101 kPa, Liquid, Standard Abbe refractometry
[4] = xn = mol fraction of the nth substance listed; details: 101 kPa, Liquid; for viscosity: Capillary tube (Ostwald / Ubbelohde) method; for speed of sound: Linear variable-path acoustic interferometer; for mass density: Pycnometric method

CC1OC(C)OC(C)O1 (configuration not stated) [2,4,6-trimethyl-1,3,5-trioxane]
Details | refractive index
[1] | 1.4029

[2]
Details | mass density [kg/m3] | speed of sound [m/s] | viscosity [mPa·s]
288.15 K | 999.69 | 1217.7 | 1.374
298.15 K | 988.35 | 1174.5 | 1.107

CC1OC(C)OC(C)O1 (configuration not stated) [2,4,6-trimethyl-1,3,5-trioxane] + CC1COC(=O)O1
[3]
Details | refractive index
x1 = 0.091 | 1.4188
x1 = 0.2019 | 1.4172
x1 = 0.3007 | 1.4157
x1 = 0.4055 | 1.4142
x1 = 0.5011 | 1.4127
x1 = 0.6022 | 1.4111
x1 = 0.7006 | 1.4094

[4]
Details | mass density, 288.15 K [kg/m3] | mass density, 298.15 K [kg/m3] | speed of sound, 288.15 K [m/s] | speed of sound, 298.15 K [m/s] | viscosity, 288.15 K [mPa·s] | viscosity, 298.15 K [mPa·s]
x1 = 0.091 | 1181.68 | 1170.78 | 1451.8 | 1415 | 2.966 | 2.386
x1 = 0.2019 | 1151.81 | 1141.1 | 1420.2 | 1382.6 | 2.809 | 2.245
x1 = 0.3007 | 1127.63 | 1117.02 | 1392.9 | 1354.5 | 2.661 | 2.116
x1 = 0.4055 | 1104.07 | 1093.5 | 1364.7 | 1325.5 | 2.494 | 1.977
x1 = 0.5011 | 1084.21 | 1073.63 | 1339.7 | 1299.9 | 2.333 | 1.846
x1 = 0.6022 | 1064.71 | 1054.05 | 1314 | 1273.4 | 2.155 | 1.705
x1 = 0.7006 | 1046.98 | 1036.19 | 1289.8 | 1248.5 | 1.974 | 1.563
x1 = 0.8028 | 1029.73 | – | 1265.5 | – | 1.779 | –
x1 = 0.9027 | 1014 | – | 1242.1 | – | 1.581 | –
x1 = 1 | 999.69 | – | 1217.7 | – | 1.374 | –

CC1COC(=O)O1 (configuration not stated) [4-methyl-1,3-dioxolan-2-one]
Details | refractive index
[1] | 1.4203

[2]
Details | mass density [kg/m3] | speed of sound [m/s] | viscosity [mPa·s]
288.15 K | 1208.67 | 1478.4 | 3.086
298.15 K | 1197.58 | 1442.3 | 2.499

CC1COC(=O)O1 (configuration not stated) [4-methyl-1,3-dioxolan-2-one] + CC1OC(C)OC(C)O1
Details | refractive index
[3], x2 = 0 | 1.4203

[4], x2 = 0
Details | mass density [kg/m3] | speed of sound [m/s] | viscosity [mPa·s]
288.15 K | 1208.67 | 1478.4 | 3.086
298.15 K | 1197.58 | 1442.3 | 2.499

CCOC(=O)OCC [diethyl carbonate]
Details | refractive index
[1] | 1.383

[2]
Details | mass density [kg/m3] | speed of sound [m/s] | viscosity [mPa·s]
288.15 K | 980.41 | 1225.6 | 0.868
298.15 K | 969.15 | 1173.4 | 0.749

CCOC(=O)OCC [diethyl carbonate] + CC1OC(C)OC(C)O1
Details | refractive index
[3], x2 = 0 | 1.383

[4], x2 = 0
Details | mass density [kg/m3] | speed of sound [m/s] | viscosity [mPa·s]
288.15 K | 980.41 | 1225.6 | 0.868
298.15 K | 969.15 | 1173.4 | 0.749

COC(=O)OC [dimethyl carbonate]
Details | refractive index
[1] | 1.366

[2]
Details | mass density [kg/m3] | speed of sound [m/s] | viscosity [mPa·s]
288.15 K | 1076.43 | 1242 | 0.647
298.15 K | 1063.1 | 1197.4 | 0.579

COC(=O)OC [dimethyl carbonate] + CC1OC(C)OC(C)O1
Details | refractive index
[3], x2 = 0 | 1.366

[4], x2 = 0
Details | mass density [kg/m3] | speed of sound [m/s] | viscosity [mPa·s]
288.15 K | 1076.43 | 1242 | 0.647
298.15 K | 1063.1 | 1197.4 | 0.579
